The record followed here is patent US20210246115A1 (Bioimics AB, priority 2017, published 2021).

Structures can show the parent of a compound that is named as a salt. Bounds are passed on as bounds.

Assay [1] relates to Escherichia coli (ATCC25922). In words: MIC, broth microdilution (CLSI), Escherichia coli. The following applies: Escherichia coli, ATCC25922, read-out: E. coli ATCC 25922 MIC, Table XIII. On the technique in general: Broth dilution looks for growth in wells or tubes with falling amounts of substance.
Assay [2] deals with Staphylococcus aureus (ATCC25923). In words: MIC, broth microdilution (CLSI), Staphylococcus aureus ATCC25923. The following applies: Staphylococcus aureus, ATCC25923, read-out: S. aureus ATCC 25923 MIC.
In assay [3] the test system is E. coli RNase P RNA, M1 RNA. In words: Inhibition of bacterial RNase P activity, IC50 determination (cleavage of pATSerUG by M1 RNA). It is filed as biochemical. Particulars: NI: No inhibition.

For `COc1cc(C)cc(C(CC(=O)N[C@H]2CC[C@H](N)CC2)c2cn(CC3CCCCC3)c3ccccc23)c1.Cl` (stereo partly drawn) [Compound 133, N-((1R,4R)-4-aminocyclohexyl)-3-(1-(cyclohexylmethyl)-1H-indol-3-yl)-3-(3-methoxy-5-methylphenyl) propanamide hydrochloride salt], the MIC in assay [1] and in assay [2] was greater than 512 µg/mL throughout. In assay [3], this compound yielded an IC50 of 76 µM.

For the compound `Cc1cccc(C(CC(=O)NC2CCNCC2)c2cn(CC3CCOCC3)c3ccc(Br)cc23)c1.Cl` (stereo not drawn) [Compound 285, 3-(5-bromo-1-((tetrahydro-2H-pyran-4-yl)methyl)-1H-indol-3-yl)-N-(piperidin-4-yl)-3-(m-tolyl) propanamide hydrochloride salt], the figures for the minimal inhibitory concentration (MIC) in assay [1] and in assay [2] were 147 µg/mL and 37 µg/mL, respectively. Moreover, in assay [3], the IC50 worked out at 74 µM.

Regarding `N[C@H]1CC[C@H](NCCc2cn(CC3CCCCC3)c3ccc(Br)cc23)CC1` [Compound 197, (1R,4R)-N1-(2-(5-bromo-1-(cyclohexylmethyl)-1H-indol-3-yl)ethyl) cyclohexane-1,4-diamine hydrochloride salt], the MIC in assay [1] amounted to 8 µg/mL; in assay [2], 4 µg/mL. In assay [3], this compound yielded a half-maximal inhibitory concentration (IC50) of 31 µM.

For `Cc1cccc(C(CC(=O)N[C@H]2CC[C@H](N(C)C)CC2)c2cn(CC3CCCCC3)c3ccccc23)c1.Cl` (stereo partly drawn) [Compound 146, 3-(1-(cyclohexylmethyl)-1H-indol-3-yl)-N-((1R,4R)-4-(dimethylamino)cyclohexyl)-3-(m-tolyl)propanamide hydrochloride salt], the MIC in assay [1] was 256 µg/mL; in assay [2], 8 µg/mL. In addition, in assay [3], inhibition was half-maximal at 52 µM (IC50).

As to `Cc1cccc(C(CC(=O)NC[C@H]2CC[C@H](CN)CC2)c2cn(CC3CCCCC3)c3ccccc23)c1.Cl` (stereo partly drawn) [Compound 166, N-(((1S,4S)-4-(aminomethyl)cyclohexyl)methyl)-3-(1-(cyclohexylmethyl)-1H-indol-3-yl)-3-(m-tolyl)propanamide hydrochloride salt], the values for the MIC in assay [1] and in assay [2] were 275 µg/mL and 9 µg/mL, respectively. Further, 7 µM corresponded to half-maximal inhibition in assay [3] (IC50).

As for `Cl.N[C@H]1CC[C@H](NC(=O)c2cn(CC3CCCCC3)c3ccc(Br)cc23)CC1` [Compound 268, N-((1R,4R)-4-aminocyclohexyl)-5-bromo-1-(cyclohexylmethyl)-1H-indole-3-carboxamide hydrochloride salt], the MIC in assay [1] came out at 30 µg/mL; in assay [2], 15 µg/mL. The same compound gave a 50% inhibitory concentration (IC50) in assay [3] of 59 µM.

For the compound `Cc1cccc(C(CC(=O)N[C@H]2CC[C@H](N)CC2)c2cn(CC3CCCCC3)c3ccc(-c4ccccc4Cl)cc23)c1.Cl` (stereo partly drawn) [Compound 205, N-((1R,4R)-4-aminocyclohexyl)-3-(5-(2-chlorophenyl)-1-(cyclohexylmethyl)-1H-indol-3-yl)-3-(m-tolyl)propanamide hydrochloride salt], the results for the MIC in assay [1] and in assay [2] were greater than 512 µg/mL and 158 µg/mL, respectively. Besides, the IC50 in assay [3] amounted to 3.2 µM.

As to `Cc1cccc(C(CC(=O)NC2CCC(N)CC2)c2cn(CC3CCCCC3)c3ccc(O)cc23)c1.Cl` [Compound 165, N-((1S,4S)-4-aminocyclohexyl)-3-(1-(cyclohexylmethyl)-5-hydroxy-1H-indol-3-yl)-3-(m-tolyl)propanamide hydrochloride salt], the MIC in assay [1] turned out to be 67 µg/mL; in assay [2], 34 µg/mL. Also, in assay [3], the IC50 was 18 µM.

Turning to `Cc1cccc(C(CC(=O)NC2CCC(CN)CC2)c2cn(CC3CCCCC3)c3ccccc23)c1.Cl` (stereo not drawn) [Compound 182, N-((1r,4r)-4-(aminomethyl)cyclohexyl)-3-(1-(cyclohexylmethyl)-1H-indol-3-yl)-3-(m-tolyl)propanamide hydrochloride salt], the MIC in assay [1] was greater than 512 µg/mL; in assay [2], 17 µg/mL. For the same compound, in assay [3], the IC50 is 17 µM.

For the compound `Cc1cccc(C(CC(=O)NC2CCNCC2)c2cn(CC3CCC(F)(F)CC3)c3ccccc23)c1.Cl` (stereo not drawn) [Compound 282, 3-(1-((4,4-difluorocyclohexyl)methyl)-1H-indol-3-yl)-N-(piperidin-4-yl)-3-(m-tolyl)propanamide hydrochloride salt], the results for the MIC in assay [1] and in assay [2] were 136 µg/mL and 34 µg/mL, respectively. In assay [3], this compound had an IC50 of 71 µM.

As to `N[C@H]1CC[C@H](NC(=O)CC(c2cn(CC3CCCCC3)c3ccccc23)C2CCNCC2)CC1` (stereo partly drawn) [Compound 107, N-((1r,4r)-4-aminocyclohexyl)-3-(1-(cyclohexylmethyl)-1H-indol-3-yl)-3-(piperidin-4-yl)propanamide hydrochloride salt], the MIC was greater than 512 µg/mL in assay [1] and 512 µg/mL in assay [2]. The compound also returned an IC50 in assay [3] of 1330 µM.

`Cc1cccc(C(CC(=O)NC2CCNCC2)c2cn(CC3CCOCC3)c3ccccc23)c1.Cl` (stereo not drawn) [Compound 284, N-(piperidin-4-yl)-3-(1-((tetrahydro-2H-pyran-4-yl)methyl)-1H-indol-3-yl)-3-(m-tolyl)propanamide hydrochloride salt]: the MIC in assay [1] and in assay [2] was greater than 512 µg/mL in each case. The compound further had an IC50 in assay [3] of 316 µM.

As for `COc1cc(OC)cc(C(CC(=O)N[C@H]2CC[C@H](N)CC2)c2cn(CC3CCCCC3)c3ccccc23)c1.Cl` (stereo partly drawn) [Compound 127, N-((1R,4R)-4-aminocyclohexyl)-3-(1-(cyclohexylmethyl)-1H-indol-3-yl)-3-(3,5-dimethoxyphenyl) propanamide hydrochloride salt], the figures for the MIC in assay [1] and in assay [2] were greater than 512 µg/mL and 512 µg/mL, respectively. Moreover, the midpoint of inhibition in assay [3], the IC50, lay at 19 µM.

Consider `Cc1cccc(C(CC(=O)N[C@H]2CC[C@H](N)CC2)c2cn(CC3CCCCC3)c3ccccc23)c1.Cl` (stereo partly drawn) [Compound 104, N-((1R,4R)-4-aminocyclohexyl)-3-(1-(cyclohexylmethyl)-1H-indol-3-yl)-3-(m-tolyl)propanamide hydrochloride salt], for which the MIC in assay [1] was 64 µg/mL; in assay [2], 8 µg/mL. This compound also gave an IC50 in assay [3] of 16 µM.

Regarding `Cc1cccc(C(CC(=O)NC2CCNCC2)c2cn(CC3CCCCC3)c3ccc(F)cc23)c1.Cl` (stereo not drawn) [Compound 118, 3-(1-(cyclohexylmethyl)-5-fluoro-1H-indol-3-yl)-N-(piperidin-4-yl)-3-(m-tolyl)propanamide hydrochloride salt], the MIC in assay [1] was found to be 32 µg/mL; in assay [2] it was 8 µg/mL. In assay [3], this compound yielded an IC50 of 39 µM.

As for `Cl.NC1CCC(NC(=O)CC(c2ccnc(O)c2)c2cn(CC3CCCCC3)c3ccccc23)CC1` [Compound 157, N-((1S,4S)-4-aminocyclohexyl)-3-(1-(cyclohexylmethyl)-1H-indol-3-yl)-3-(2-hydroxypyridin-4-yl)propanamide hydrochloride salt], the MIC in assay [1] is 262 µg/mL; in assay [2] it was 131 µg/mL. Further, in assay [3], the midpoint of inhibition, the IC50, lay at 3.4 µM.

Consider `Cl.N[C@H]1CC[C@H](NC(=O)CCc2cn(CC3CCCCC3)c3ccc(-c4cccc(OC(F)(F)F)c4)cc23)CC1` [Compound 213, N-((1R,4R)-4-aminocyclohexyl)-3-(1-(cyclohexylmethyl)-5-(3-(trifluoromethoxy)phenyl)-1H-indol-3-yl) propanamide hydrochloride salt], for which the minimum inhibitory concentration (MIC) in assay [1] turned out to be 296 µg/mL; in assay [2], 18 µg/mL. This compound also yielded a concentration for half-maximal inhibition (IC50) in assay [3] of 3 µM.

`Cl.N[C@H]1CC[C@H](NC(=O)CCc2cn(CC3CCCCC3)c3ccc(Br)cc23)CC1` [Compound 156, N-((1R,4R)-4-aminocyclohexyl)-3-(5-bromo-1-(cyclohexylmethyl)-1H-indol-3-yl)propanamide hydrochloride salt]: the MIC was determined as 32 µg/mL in assay [1] and 16 µg/mL in assay [2]. Moreover, the IC50 in assay [3] is 16 µM.

Consider `Cc1cccc(C(CC(=O)NCC2CCC(N)CC2)c2cn(CC3CCCCC3)c3ccc(Br)cc23)c1.Cl` [Compound 214, N-(((1R,4R)-4-aminocyclohexyl)methyl)-3-(5-bromo-1-(cyclohexylmethyl)-1H-indol-3-yl)-3-(m-tolyl)propanamide hydrochloride salt], for which the values for the MIC in assay [1] and in assay [2] were greater than 512 µg/mL and 10 µg/mL, respectively. In assay [3], this compound registered an IC50 of 13 µM.

With `Cc1cccc(C(CC(=O)N[C@H]2CC[C@H](CN)CC2)c2cn(CC3CCCCC3)c3ccc(Br)cc23)c1.Cl` (stereo partly drawn) [Compound 206, N-((1R,4R)-4-(aminomethyl)cyclohexyl)-3-(5-bromo-1-(cyclohexylmethyl)-1H-indol-3-yl)-3-(m-tolyl)propanamide hydrochloride salt], the MIC in assay [1] is greater than 512 µg/mL; in assay [2], 19 µg/mL. For the same compound, the IC50 in assay [3] is 23 µM.

Consider `CN(C)CCNC(=O)CC(c1cn(CC2CCCCC2)c2ccccc12)C1CCNCC1` (stereo not drawn) [Compound 108, 3-(1-(cyclohexylmethyl)-1H-indol-3-yl)-N-(2-(dimethylamino)ethyl)-3-(piperidin-4-yl) propanamide hydrochloride salt], for which the MIC in assay [1] and in assay [2] was greater than 512 µg/mL throughout. In assay [3], this compound had an IC50 of 2080 µM.

For `Cc1cccc(C(CC(=O)NC2CCC(N)CC2)c2cn(CC34CC5CC(CC(C5)C3)C4)c3ccccc23)c1.Cl` [Compound 223, 3-(1-(((1S,3S)-adamantan-1-yl)methyl)-1H-indol-3-yl)-N-((1s,4s)-4-aminocyclohexyl)-3-(m-tolyl)propanamide hydrochloride salt], the MIC in assay [1] is greater than 512 µg/mL; in assay [2], 2 µg/mL. Also, in assay [3], the IC50 was determined as 8 µM.

`Cc1cccc(C(CC(=O)N2CCC(N)CC2)c2cn(CC3CCCCC3)c3ccccc23)c1.Cl` (stereo not drawn) [Compound 179, 1-(4-aminopiperidin-1-yl)-3-(1-(cyclohexylmethyl)-1H-indol-3-yl)-3-(m-tolyl)propan-1-one hydrochloride salt]: the MIC amounted to 63 µg/mL in assay [1] and 8 µg/mL in assay [2]. In addition, the IC50 in assay [3] is 12 µM.

Take `Cc1cccc(C(CC(=O)NC2CCC(NC(=N)N)CC2)c2cn(CC3CCCCC3)c3ccccc23)c1` (stereo not drawn) [Compound 201, 3-(1-(cyclohexylmethyl)-1H-indol-3-yl)-N-(4-guanidinocyclohexyl)-3-(m-tolyl) propanamide hydrochloride salt]: the minimal inhibitory concentration (MIC) in assay [1] was 75 µg/mL; in assay [2], 2 µg/mL. The IC50 in assay [3] stood at 15.4 µM.

The term MIC denotes the smallest concentration in the dilution series that meets the test's criterion for growth inhibition. A word on the IC50: it is the concentration that gives 50% inhibition.
